US20050170485A1, “Culture having phenol oxidase-like activity” (priority 2002, published 2005)

Experiments:
Assay type in all cases: biochemical
[1] = system: culture of Flammulina velutipes strain IFO 30601; experiment: Direct oxidation reaction by the culture; settings: for activity of the culture for the substrate in words, direct oxidation reaction: pH 7.0; for Relative Activity, Culture (direct oxidation): reaction pH 7.0, 2-chloro 1,4-phenylenediamine = 100; for activity of the culture compared with laccase from Japanese lacquer, direct oxidation / activity of the culture compared with bilirubin oxidase from the genus Myrothecium, direct oxidation: pH 7.0, relative activities of Table 7
Procedure: Further, the direct oxidation reaction of the culture obtained in the above-mentioned example was determined by using color development due to oxidative polymerization of a substrate generated by the direct action of the culture of the present invention on the substrate as an index.
As the substrates, there were used diaminophenolic compounds (2-chloro 1,4-phenylenediamine, p-phenylenediamine, 2,5-diaminotoluene, N-phenyl-p-phenylenediamine, toluylene-3,4-diamine, m-phenylenediamine), aminophenolic compounds (o-aminophenol, m-aminophenol, 5-amino-o-cresol, p-aminophenol, p-methylaminophenol), and phenolic compounds (2,6-dimethoxyphenol, catechol, resorcinol, hydroquinone, pyrogallol, gallic acid, propyl gallate, 1-naphthol, […], 2,3,4-trihydroxybenzophenone, 2,3,4,4-tetrahydroxybenzophenone). As to a substrate hardly soluble in water, there was used one obtained by dissolving the substrate in a small amount of dimethyl sulfoxide and diluting the resulting solution with deionized distilled water to a desired concentration. In Table 6, %” indicates volume/volume %.
(§1) Concretely, 180 μl of 0.89 mM sodium phosphate buffer (pH 7.0) containing […] substrate was pre-incubated in wells of a 96-well microplate [manufactured by Corning, Costor (registered trademark) 3368] at 25° C. for 1 minute. Next, 20 μl of the above-mentioned culture solution was added to the resulting mixture. A change in absorbance at 490 nm, 450 nm or 405 nm was determined for the resulting product, depending on the substrate. Here, 1 U (unit) of the activity regarding the direct oxidative reaction was defined as an amount for increasing the absorbance by 1 per one minute.

[2] = target: T1, bilirubin oxidase from the strain belonging to the genus Myrothecium (Albifimbria verrucaria, UniProt Q12737); experiment: Direct oxidation reaction by bilirubin oxidase (comparison); parameters: concentration or dose not given beside the values; settings: reaction pH 7.0; 2-chloro 1,4-phenylenediamine = 100
T1 sequence (Q12737 39-572): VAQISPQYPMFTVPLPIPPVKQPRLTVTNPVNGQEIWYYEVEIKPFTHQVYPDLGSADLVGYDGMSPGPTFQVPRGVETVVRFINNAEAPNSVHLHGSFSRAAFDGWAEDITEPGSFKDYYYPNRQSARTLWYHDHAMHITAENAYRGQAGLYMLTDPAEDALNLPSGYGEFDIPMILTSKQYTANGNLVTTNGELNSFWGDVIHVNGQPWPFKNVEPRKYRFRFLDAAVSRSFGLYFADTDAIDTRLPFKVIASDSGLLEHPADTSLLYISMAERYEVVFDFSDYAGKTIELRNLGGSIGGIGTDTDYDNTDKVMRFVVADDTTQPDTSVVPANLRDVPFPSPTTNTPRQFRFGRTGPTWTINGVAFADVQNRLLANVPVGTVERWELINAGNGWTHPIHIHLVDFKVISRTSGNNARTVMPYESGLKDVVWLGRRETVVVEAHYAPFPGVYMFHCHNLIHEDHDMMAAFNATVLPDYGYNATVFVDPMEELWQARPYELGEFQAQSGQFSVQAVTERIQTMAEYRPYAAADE
Procedure: as §1
(§2) In addition, for the comparison, the substrate specificities at pH 7.0 for laccase from Japanese lacquer and bilirubin oxidase from the strain belonging to the genus Myrothecium were also examined in the same manner.
The relative activity (%) for each substrate is shown in Table 7, in which the measured value for a case where a representative chemical dye 2-chloro 1,4-phenylenediamine was used as a substrate is 100.

[3] = system: laccase from Japanese lacquer; experiment: Direct oxidation reaction by laccase (comparison); settings: reaction pH 7.0; 2-chloro 1,4-phenylenediamine = 100
Procedure: Next, 20 μl of the above-mentioned culture solution was added to the resulting mixture. A change in absorbance at 490 nm, 450 nm or 405 nm was determined for the resulting product, depending on the substrate. Here, 1 U (unit) of the activity regarding the direct oxidative reaction was defined as an amount for increasing the absorbance by 1 per one minute.
as §2

[4] = target: T2, bilirubin oxidase from the strain of the genus Myrothecium (Albifimbria verrucaria, UniProt Q12737); experiment: Oxidative coupling reaction with 4-aminoantipyrine by bilirubin oxidase (comparison); settings: reaction pH 8.0, substrate 2.0 mM
T2 sequence (Q12737 39-572): T1 sequence (Q12737 39-572)
Procedure: (§3) Concretely, 190 μl of 105.3 mM phosphate buffer (pH 7.0) containing 0.4 μmol of a substrate and 4.0 μmol of 4-aminoantipyrine was pre-incubated in wells of a 96-well microplate [manufactured by Corning, Costor (registered trademark) 3368] at 25° C. for 1 minute. Next, 10 μl of the above-mentioned culture solution was added to the resulting mixture, and thereafter, the mixture was incubated for 1 hour. A change in absorbance at 490 nm or 450 nm was determined for the resulting product. One unit (U) of the activity regarding the oxidative coupling reaction was defined as an amount for increasing the absorbance by 1 per one minute.
In addition, for the comparison, the examination was made in the same manner for bilirubin oxidase from the strain of the genus Myrothecium except that the above-mentioned buffer was replaced with 105.3 mM Tris-HCl buffer (pH 8.0).

[5] = system: culture of Flammulina velutipes strain IFO 30601; experiment: Oxidative coupling reaction with 4-aminoantipyrine by the culture; settings: for Specific Activity, Culture (oxidative coupling with 4-aminoantipyrine): reaction pH 7.0, 25° C., substrate 2.0 mM; for activity of the culture for the substrate in words, oxidative coupling reaction: pH 7.0
Procedure: Next, the oxidative coupling reaction of the culture obtained in (2) in Example 1 mentioned above was determined by using color development as an index by the oxidative condensation of the substrate (hydrogen donor) with 4-aminoantipyrine, catalyzed by the culture of the present invention.
As the hydrogen donors, there were used phenolic compounds (phenol, 2-methoxyphenol, 2,6-dimethoxyphenol, catechol, resorcinol, hydroquinone, pyrogallol, gallic acid, propyl gallate, 1-naphthol, catechin), aminophenolic compounds (o-aminophenol, m-aminophenol, p-aminophenol), diaminophenolic compounds (o-phenylenediamine, m-phenylenediamine, p-phenylenediamine), and heterocyclic compounds (5-hydroxyindole, 2,6-diaminopyridine).
The above-mentioned culture solution was added to a reaction system containing 4-aminoantipyrine and an optional hydrogen donor. Thereafter, the activity of the culture of the present invention was assayed by determining a change in absorbance at 490 nm for the phenolic compound, the diaminophenolic compound and the heterocyclic compound, or determining a change in absorbance at 450 nm for the aminophenolic compound. As to a substrate hardly soluble in water, there was used one obtained by dissolving the substrate in a small amount of dimethyl sulfoxide and diluting the resulting solution with deionized water to a desired concentration. In Table 4, DMSO is an abbreviation for dimethyl sulfoxide.
as §3

Molecule | activity of the culture for the substrate in words, direct oxidation reaction [1] | Relative Activity, Culture (direct oxidation) [1] [%] | Relative Activity, Bilirubin Oxidase from Strain Belonging to Genus Myrothecium (direct oxidation) [2] [%] | Relative Activity, Laccase from Japanese Lacquer (direct oxidation) [3] [%] | Specific Activity, Bilirubin Oxidase from Strain Belonging to Genus Myrothecium (oxidative coupling with 4-aminoantipyrine) [4] [U/mg Protein] | activity of the culture compared with laccase from Japanese lacquer, direct oxidation [1] | Specific Activity, Culture (oxidative coupling with 4-aminoantipyrine) [5] [U/mg Protein] | activity of the culture compared with bilirubin oxidase from the genus Myrothecium, direct oxidation [1] | activity of the culture for the substrate in words, direct oxidation reaction ([1]; listed as 2,3,4,4-tetrahydrobenzophenone) | activity of the culture for the substrate in words, oxidative coupling reaction [5]
Nc1ccc(Nc2ccccc2)cc1 [N-Phenyl-p-phenylenediamine] | especially high activity | 174 | 102 | 94 |  |  |  |  |  | 
Oc1cccc(O)c1 [Resorcinol] |  | 75 | 91 | 25 | 25.6 | higher activity | 5.7 |  |  | 
C1=CCC2=CC=CCC2=C1 [1,5-Dihydronaphthalene] |  | 63 | 69 | 47 |  |  |  |  |  | 
CNc1ccc(O)cc1 [p-Methylaminophenol] | especially high activity | 304 | 122 | 308 |  |  |  | higher activity |  | 
O=C(c1ccc(O)cc1)c1ccc(O)c(O)c1O [2,3,4,4-Tetrahydroxybenzophenone] | high activity | 571 | 52 | 179 |  | higher activity |  | even higher activity | especially high activity | 
Oc1cccc(O)c1O [Pyrogallol] | high activity | 184 | 104 | 187 | −27.6 |  | 3.2 |  |  | 
Cc1ccc(N)cc1O [5-Amino-o-cresol] |  | 117 | 19 | 1 |  | even higher activity |  | even higher activity |  | 
Cc1cc(N)ccc1N [2,5-Diaminotoluene] |  | 80 | 24 | 44 |  |  |  | higher activity |  | 
Nc1ccccc1N [o-Phenylenediamine] |  |  |  |  | 4.5 |  | 15.1 |  |  | 
CCCOC(=O)c1cc(O)c(O)c(O)c1 [Propyl Gallate] |  | 34 | 85 | 14 | −0.1 | higher activity | −0.2 | higher activity |  | 
Nc1ccc(N)c(Cl)c1 [2-Chloro 1,4-phenylenediamine] |  | 100 | 100 | 100 |  |  |  |  |  | 
O=C(O)c1cc(O)c(O)c(O)c1 [Gallic acid] |  | 65 | 88 | 9 | 14.9 | even higher activity | 0.9 |  |  | 
Catechin |  |  |  |  | 4.6 |  | 14.0 |  |  | especially high activity
Oc1ccccc1 [Phenol] |  |  |  |  | 0.9 |  | 8.1 |  |  | 
Oc1ccc2[nH]ccc2c1 [5-Hydroxyindole] |  |  |  |  | 1.9 |  | 4.7 |  |  | 
Nc1cccc(N)n1 [2,6-Diaminopyridine] |  |  |  |  | 2.3 |  | 37.7 |  |  | high activity
O=C(c1ccccc1)c1ccc(O)c(O)c1O [2,3,4-Trihydroxybenzophenone] | especially high activity | 537 | 62 | 175 |  | higher activity |  | even higher activity |  | 
Cc1ccc(N)c(N)c1 [Toluylene-3,4-diamine] |  | 120 | 45 | 61 |  |  |  | higher activity |  | 
